Patent US20240335570A1, “FOLATE RECEPTOR-TARGETED CONJUGATES WITH BRUSH BORDER MEMBRANE ENZYME-CLEAVABLE LINKERS AND METHODS OF USE IN IMAGING AND TREATING CANCER” (PURDUE RESEARCH FOUNDATION, priority 2021, published 2024)
pKd: −log10 of the molar value. No end group written: not given here.

Test system: KB cells
Test: Folate conjugate binding curves in KB cells by flow cytometry
Conditions: KB cells incubated 1 hour at 4° C. with increasing concentrations of conjugate, concentrations normalized via fluorescence, read-out: Kd (folate conjugate binding curve)
Procedure: KB cells were incubated for 1 hour at 4° C. with increasing concentrations of OTL38, BBM1, BBM2, or BBM3 in staining buffer, washed three times with staining buffer, and then analyzed via flow cytometry.
KB cells were incubated for 1 hour at 4° C. with increasing concentrations of OTL38, BBM1, BBM2 or BBM3 in staining buffer, washed three times with staining buffer, suspended in phosphate-buffered saline, and then analyzed via flow cytometry. Concentrations of all conjugates were normalized via fluorescence.

Compound | pKd
CCCCCN1c2ccc(C)cc2C(C)(C)C1CCc1cccc(CCC2N(CCCCC)c3ccc(C)cc3C2(C)C)c1Oc1ccc(CCNC(=O)CCN2C(=O)CC(SCC(NC(=O)C(CCCCN)NC(=O)[C@@H](NC(=O)C(CCCC)NC(=O)CCC(NC(=O)c3ccc(NCc4cnc5nc(N)nc(O)c5n4)cc3)C(=O)O)C(C)C)C(=O)O)C2=O)cc1 (stereo partly drawn) [BBM1] | 7.91
BBM2: Folate dye conjugate; a peptide with the sequence M-V-K-G-Y-G-K-C (MVKGYGKC; also: folate dye conjugate (site not given here)) | 7.53
OTL38 [reference compound] | 8.17
